Reference: the Kinase Knowledgebase extract (Sharma et al. 2016)

The compounds below were run against PIK3CG (UniProt P48736) (assay: Inhibition of PIK3CG Kinase Activity).
Chain of PIK3CG (P48736 whole entry, looked up): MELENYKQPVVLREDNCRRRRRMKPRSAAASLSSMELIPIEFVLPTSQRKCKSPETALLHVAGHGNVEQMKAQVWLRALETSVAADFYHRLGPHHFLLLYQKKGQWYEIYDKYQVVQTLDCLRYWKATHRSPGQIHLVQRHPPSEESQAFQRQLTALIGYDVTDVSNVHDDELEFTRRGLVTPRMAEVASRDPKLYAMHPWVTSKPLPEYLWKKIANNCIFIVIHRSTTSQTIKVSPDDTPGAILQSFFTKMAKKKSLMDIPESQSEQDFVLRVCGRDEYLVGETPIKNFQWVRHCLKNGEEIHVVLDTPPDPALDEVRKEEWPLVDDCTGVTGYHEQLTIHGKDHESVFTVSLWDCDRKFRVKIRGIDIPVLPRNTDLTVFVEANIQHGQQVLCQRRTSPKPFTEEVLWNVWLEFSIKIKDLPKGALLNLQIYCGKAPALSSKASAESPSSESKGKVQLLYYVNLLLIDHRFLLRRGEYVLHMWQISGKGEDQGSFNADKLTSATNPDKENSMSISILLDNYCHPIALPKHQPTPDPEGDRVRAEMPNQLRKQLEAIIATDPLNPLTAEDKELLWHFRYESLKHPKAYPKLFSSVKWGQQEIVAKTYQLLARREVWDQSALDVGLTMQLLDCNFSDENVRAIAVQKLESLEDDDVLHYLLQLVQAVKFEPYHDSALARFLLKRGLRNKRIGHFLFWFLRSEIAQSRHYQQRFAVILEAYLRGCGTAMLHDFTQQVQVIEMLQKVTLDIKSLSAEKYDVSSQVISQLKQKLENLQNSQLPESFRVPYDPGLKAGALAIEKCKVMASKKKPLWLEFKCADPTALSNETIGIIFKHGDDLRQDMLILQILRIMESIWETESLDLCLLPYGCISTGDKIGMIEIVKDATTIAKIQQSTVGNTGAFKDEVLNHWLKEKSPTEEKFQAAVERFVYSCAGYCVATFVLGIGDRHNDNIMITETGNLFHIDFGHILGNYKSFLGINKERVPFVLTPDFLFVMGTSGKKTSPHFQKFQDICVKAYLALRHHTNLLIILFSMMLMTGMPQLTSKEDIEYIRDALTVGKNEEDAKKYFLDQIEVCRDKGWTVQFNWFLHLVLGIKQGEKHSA
Compound `CCN1C(=O)COc2ccc(C=C3SC(=S)NC3=O)cc21` has an IC50 of 42 nM. Compound `O=C1NC(=S)SC1=Cc1cc(F)c2c(c1)N(Cc1ccc(F)c(Cl)c1)C(=O)CO2` has an IC50 of 2 nM. Compound `CC(C)(C)c1cc(C(C)(C)C)nc(CN2C(=O)COc3ccc(C=C4SC(=S)NC4=O)cc32)n1` has an IC50 of 2070 nM. Compound `CN1C(=O)COC2C=CC(C=C3OC(=S)NC3=O)=CC21` (stereo not given) has an IC50 of 16 nM. For `O=C1NC(=S)SC1=Cc1cc(F)c2c(c1)N(CCCN1CCOCC1)C(=O)CO2`, the IC50 was 55 nM. For `CC(C)(C)c1cc(O)cc(CN2C(=O)COc3ccc(C=C4SC(=S)NC4=O)cc32)c1`, the IC50 was 22 nM. `O=C1NC(=S)SC1=Cc1ccc2c(c1)N(CCc1ccc(C(F)(F)F)cc1C(F)(F)F)C(=O)CO2` showed an IC50 of 14 nM. `COc1ccc(CCCN2C(=O)COc3ccc(C=C4SC(=O)NC4=O)cc32)cc1` was tested, and the IC50 was 18 nM. In the case of `CCOC(=O)N1CCC(Cc2ccc(CN3C(=O)COc4ccc(C=C5SC(=S)NC5=O)cc43)cc2)CC1`, the IC50 is reported as 52 nM. With `CCOC(=O)N1CCC(Cc2ccc(CN3C(=O)COc4ccc(C=C5SC(=O)NC5=O)cc43)cc2)CC1` the IC50 was 32 nM. `CC(C)(C)c1cc(C(C)(C)C)nc(CN2C(=O)COc3c(F)cc(C=C4SC(=S)NC4=O)cc32)n1` was tested, and the IC50 was 1240 nM. Work on `CC(C)(C)OC(=O)N1CCC(C(=O)CN2C(=O)COc3ccc(C=C4SC(=S)NC4=O)cc32)CC1` yielded an IC50 of 3180 nM. In the case of `O=C1NC(=S)SC1=Cc1ccc2c(c1)N(CC1CCCCC1)C(=O)CO2`, the IC50 is reported as 2 nM. `CC(C)(C)c1cc(CN2C(=O)COc3c(F)cc(C=C4SC(=S)NC4=O)cc32)cc(C(C)(C)O)c1` gave an IC50 of 5 nM. Work on `CC1CC(C)CN(CCCN2C(=O)COc3c(F)cc(C=C4SC(=S)NC4=O)cc32)C1` (stereo not given) yielded an IC50 of 18.5 nM.
